Assay results from patent US6855513B1 (priority 1999, dated 2005).

Tests used:
Assay type in all cases: cell-based, Pseudomonas aeruginosa
qsc133A&B (AcrB) = assay: Acyl-HSL induction of β-galactosidase in qsc133A&B mutants; conditions: Class IV, 3OC12-HSL 2 μM, C4-HSL 5 μM
[1] = tested on: qsc110A&B (Pyoverdine synthetase D); assay: Acyl-HSL induction of β-galactosidase in qsc110A&B mutants; conditions: Class II, 3OC12-HSL 2 μM, C4-HSL 5 μM
[2] = tested on: qsc132A&B (Unknown (B. pertusis)); assay: Acyl-HSL induction of β-galactosidase in qsc132A&B mutants; conditions: Class IV, 3OC12-HSL 2 μM, C4-HSL 5 μM
[3] = tested on: qsc111 (Pyoverdine synthetase D); assay: Acyl-HSL induction of β-galactosidase in qsc111 mutant; conditions: qsc111, Class II; 3OC12-HSL 2 μM, C4-HSL 5 μM
[4] = tested on: qsc134 (Saframycin Mx1 synthetase A); assay: Acyl-HSL induction of β-galactosidase in qsc134 mutant; conditions: qsc134, Class IV; 3OC12-HSL 2 μM, C4-HSL 5 μM
[5] = tested on: qsc113 (Trransmembrane protein); assay: Acyl-HSL induction of β-galactosidase in qsc113 mutant; conditions: qsc113, Class II; 3OC12-HSL 2 μM, C4-HSL 5 μM
[6] = tested on: qsc129A&B (Cellulose binding protein p40); assay: Acyl-HSL induction of β-galactosidase in qsc129A&B mutants; conditions: Class III, 3OC12-HSL 2 μM, C4-HSL 5 μM
[7] = tested on: qsc126 (Pristanimycin I synthase 3 & 4); assay: Acyl-HSL induction of β-galactosidase in qsc126 mutant; conditions: qsc126, Class III; 3OC12-HSL 2 μM, C4-HSL 5 μM
[8] = tested on: qsc130 (glc operon transcriptional activator); assay: Acyl-HSL induction of β-galactosidase in qsc130 mutant; conditions: qsc130, Class III; 3OC12-HSL 2 μM, C4-HSL 5 μM
[9] = tested on: qsc124A&B (Pyoverdine synthetase D); assay: Acyl-HSL induction of β-galactosidase in qsc124A&B mutants; conditions: Class III, 3OC12-HSL 2 μM, C4-HSL 5 μM
qsc106A&B = assay: Acyl-HSL induction of β-galactosidase in qsc106A&B mutants; conditions: Class I, 3OC12-HSL 2 μM, C4-HSL 5 μM
[10] = tested on: qsc120 (Chloramphenicol resistance); assay: Acyl-HSL induction of β-galactosidase in qsc120 mutant; conditions: qsc120, Class III; 3OC12-HSL 2 μM, C4-HSL 5 μM
[11] = tested on: qsc121 (3-Oxoacyl ACP synthase); assay: Acyl-HSL induction of β-galactosidase in qsc121 mutant; conditions: qsc121, Class III; 3OC12-HSL 2 μM, C4-HSL 5 μM
qsc118 (RhlI) = assay: Acyl-HSL induction of β-galactosidase in qsc118 mutant; conditions: qsc118, Class III; 3OC12-HSL 2 μM, C4-HSL 5 μM
[12] = tested on: quorum sensing signaling (Las system), QSC102 lacZ; assay: Two-strain (PAO1 / QSC102) screening assay for quorum sensing inhibiting compounds; conditions: β-galactosidase / blue color on X-gal
Experimental: In this example, the screening assay used two strains of P. aeruginosa: a wild type P. aeruginosa (PAO1) and QSC102, from Example 1 (see FIG. 8). This assay will detect inhibition of all aspects of quorum sensing signaling, e.g., signal generation and signal reception.
Microtiter plates are prepared by adding 200 μL Luria Broth (“LB”) agar, containing 0.008% 5-bromo-4-chloro-3-indolyl-β-D-galactose (X-gal) to each well. Overnight cultures of PAO1 and QSC102 are subcultured in LB to a starting absorbance at 600 nm (“A600”) of 0.05 and grown at 37° C to an A600 of 1.0. PAO1 is diluted 2.5×10^5-fold in LB and 5 μL of this is applied to the surface of the LB agar in each well. Plates are then dried in a laminar flow hood for 60 minutes. A tenfold dilution of QSC102 in LB is used to inoculate each well using a replicator. Plates are then sealed and incubated at 37° C for 40 hours. Growth and color development are evaluated visually and the data is recorded with a camera.
The test compound was present in a microtiter well and overlaid with LB agar and 5-bromo-4-chloro-3-indolyl-β-D-galactose (X-gal). Both strains were spotted on the agar in each well. […] Inhibition of signaling was evaluated qualitatively by the absence or weakening of the blue color development.

[13] = tested on: qsc135 (Cytochrome C precursor); assay: Acyl-HSL induction of β-galactosidase in qsc135 mutant; conditions: qsc135, Class IV; 3OC12-HSL 2 μM, C4-HSL 5 μM
qsc127 = assay: Acyl-HSL induction of β-galactosidase in qsc127 mutant; conditions: qsc127, Class III; 3OC12-HSL 2 μM, C4-HSL 5 μM
[14] = tested on: qsc128 (Hydrogen cyanide synthase HcnB); conditions: qsc128, Class III; 3OC12-HSL 2 μM, C4-HSL 5 μM

Compound | Signal response (β-galactosidase activity with signal(s) divided by activity without added signals), maximum (qsc133A&B (AcrB)) | Signal response (β-galactosidase activity with signal(s) divided by activity without added signals), maximum [1] | Signal response (β-galactosidase activity with signal(s) divided by activity without added signals), maximum [2] | Signal response (β-galactosidase activity with signal(s) divided by activity without added signals), maximum [3] | Signal response (β-galactosidase activity with signal(s) divided by activity without added signals), maximum [4] | Signal response (β-galactosidase activity with signal(s) divided by activity without added signals), maximum [5] | Signal response (β-galactosidase activity with signal(s) divided by activity without added signals), maximum [6] | Signal response (β-galactosidase activity with signal(s) divided by activity without added signals), maximum [7] | Signal response (β-galactosidase activity with signal(s) divided by activity without added signals), maximum [8] | Signal response (β-galactosidase activity with signal(s) divided by activity without added signals), maximum [9] | Signal response (β-galactosidase activity with signal(s) divided by activity without added signals), maximum (qsc106A&B) | Signal response (β-galactosidase activity with signal(s) divided by activity without added signals), maximum [10] | Signal response (β-galactosidase activity with signal(s) divided by activity without added signals), maximum [11] | Signal response (β-galactosidase activity with signal(s) divided by activity without added signals), maximum (qsc118 (RhlI)) | Response of the QSC102 lacZ fusion to the signal [12] | Signal response (β-galactosidase activity with signal(s) divided by activity without added signals), maximum [13] | Signal response (β-galactosidase activity with signal(s) divided by activity without added signals), maximum (qsc127) | Signal response (β-galactosidase activity with signal(s) divided by activity without added signals), maximum [14]
CCCCCCCCCC(=O)CC(=O)N[C@H]1CCOC1=O [3OC12-HSL, N-(3-oxododecanoyl) homoserine lactone] | 1 | 10 | 1 | 11 | 6 | 5 | 15 | 3 | 5 | 35 | 9 | 3 | 13 | 38 | responded by turning blue | 3 | 5 | 19
CCCC(=O)N[C@H]1CCOC1=O [C4-HSL, butanoyl-HSL] | 1 | 1 | 1 | 1 | 1 | 1 | 1 | 5 | 1 | 50 | 1 | 7 | 27 | 14 | did not respond | 1 | 2 | 12
